Test results published in US20240150423A1, “GLP-1 ANALOGUE-MODIFIED DIMERS WITH DIFFERENT CONFIGURATIONS, PREPARATION METHOD THEREOF, AND APPLICATION THEREOF IN TREATMENT OF TYPE II DIABETES” (Nanjing Finepeptide Biopharmaceutical Co.,Ltd, priority 2019, published 2024).
Positions of bridges follow the written chain, without caps; N, C: chain ends. Non-standard residues stand in square brackets, D forms with d. Chains are numbered I, II in the order given. No end group written: not given here. bAib = not defined here; βAla = NCCC(=O)O

Each substance was assayed on Normal Kunming (KM) mice (assay: multiple OGTT (mOGTT): hypoglycemic duration after a single administration). Details: single injection at the same dose (1.126 nmol), subcutaneous.
Format: in vivo
From the text: • 1. Methods: Normal Kunming (KM) mice (purchased from Guangdong Animal Center) were used for oral glucose tolerance test (OGTT) to obtain the hypoglycemic activity and durability of drug. […] The blood glucose meter and blood glucose test paper were from Bayer […]. The average blood glucose of each group was used as an evaluation standard: When the average blood glucose of experimental group was higher than that of the NaCl control group for two times, the measurement stopped and the hypoglycemic period compared to the blank control group was the effective duration. • 2. Results • 2.1 single OGTTs: after a single administration, the mice were orally administered glucose once and measured the blood glucose from the tail blood at 0, 10, 20, 40, 60 and 120 min. […] The duration of each monomer group was about 1⁄2-1⁄4 of the duration of its corresponding dimer group. […] Therefore, the 2G3 peptide was selected for treating type II diabetes (T2D) in vivo and subsequent experiments.

In order of rising “Hypoglycemic duration” value:
1. 2G2 series 19: disulfide-linked homodimer of monomer SEQ ID NO: 19 (chain 1 H[βAla]EGTFTSDVCSYLEGQAAKEFIAWLVR[βAla]R; chain 2 H[βAla]EGTFTSDVCSYLEGQAAKEFIAWLVR[βAla]R; disulfide I:11-II:11 (inferred); not fully specified (C-terminus))  3 days
2. 2G2 series 16: disulfide-linked homodimer of monomer SEQ ID NO: 16 (chain 1 H[bAib]EGTFTSDVCSYLEGQAAKEFIAWLVR[bAib]R; chain 2 H[bAib]EGTFTSDVCSYLEGQAAKEFIAWLVR[bAib]R; disulfide I:11-II:11 (inferred); not fully specified; reading uncertain)  4 days
3. 2G2 series 17: disulfide-linked homodimer of monomer SEQ ID NO: 17 (chain 1 H[bAib]EGTFTSDVCSYLEGQAAKEFIAWLVK[bAib]R-NH2; chain 2 H[bAib]EGTFTSDVCSYLEGQAAKEFIAWLVK[bAib]R-NH2; disulfide I:11-II:11 (inferred); not fully specified; reading uncertain; also: disulfide-linked homodimer)  4 days
4. 2G2 series 9: disulfide-linked homodimer of monomer SEQ ID NO: 9 (HAEGTFTSDVCSYLEGQAAXEFIAWLVRGRG; disulfide-linked homodimer; Sequence is synthesized; (20)..(20) Xaa is 26Lys[N-e-(N-a-oleoyl-L-g-glutamyl)]; (31)..(1) C-terminal)  5 days
5. 2G2 series 8: disulfide-linked homodimer of monomer SEQ ID NO: 8 (HAEGTFTSDVCSYLEGQAAXEFIAWLVRGRG; not fully specified; disulfide-linked homodimer; Sequence is synthesized; (20)..(20) Xaa is Xaa is 26Lys[N-e-(N-a-Palmitoyl-g-glutamyl)]; (31)..(31) N-terminal)  7 days
6. 2G4 series 26: disulfide-linked homodimer of monomer SEQ ID NO: 26 (HAEGTFTSDVCSYLEGQAAXEFIAWLVRGRG; not fully specified; disulfide-linked homodimer; Sequence is synthesized; (20)..(20) Xaa is 26Lys[N-e-(N-a-oleoyl-L-g-glutamyl)]; (31)..(31) C-terminal)  12 days
7. 2G4 series 32: disulfide-linked homodimer of monomer SEQ ID NO: 32 (HAEGTFTSDVSCYLEGQAAXEFIAWLVRGRG; not fully specified; disulfide-linked homodimer; Sequence is synthesized; (20)..(20) Xaa is 26Lys[N-e-(N-a-oleoyl-L-g-glutamyl)]; (31)..(31) C-terminal)  13 days
8. 2G4 series 34: disulfide-linked homodimer of monomer SEQ ID NO: 34 (HAEGTFTSDVSCYLEGQAAXEFIAWLVRGRG; not fully specified; disulfide-linked homodimer; Sequence is synthesized; (20)..(20) Xaa is 26Lys[N-e-(N-a-palmitoyl-L-g-glutamyl)]; (31)..(31) C-terminal)  13 days
9. 2G3 series 21: disulfide-linked homodimer of monomer SEQ ID NO: 21 (HAEGTFTSDVSCYLEGQAAXEFIAWLVRGRG; disulfide-linked homodimer; Sequence is synthesized; (20)..(20) Xaa is 26Lys[N-e-(N-a-oleoyl-L-g-glutamyl)]; (31)..(31) C-terminal)  14 days
10. 2G4 series 25: disulfide-linked homodimer of monomer SEQ ID NO: 25 (HAEGTFTSDVCSYLEGQAAXEFIAWLVRGRG; not fully specified; disulfide-linked homodimer; Sequence is synthesized; (20)..(20) Xaa is 26Lys[N-e-(N-a-palmitoyl-L-g-glutamyl)]; (31)..(31) N-terminal)  14 days
11. 2G4 series 27: disulfide-linked homodimer of monomer SEQ ID NO: 27 (HAEGTFTSDVCSYLEGQAAXEFIAWLVRGRG; not fully specified; disulfide-linked homodimer; Sequence is synthesized; (20)..(20) Xaa is 26Lys[N-e-(N-a-oleoyl-L-g-glutamyl)]; (31)..(31) N-terminal)  15 days
12. 2G4 series 31: disulfide-linked homodimer of monomer SEQ ID NO: 31 (HXEGTFTSDVCSYLEGQAAXEFIAWLVRGRG; not fully specified; disulfide-linked homodimer; Sequence is synthesized; (2)..(2) Xaa is bAla; (20)..(20) Xaa is 26Lys[N-e-(N-a-oleoyl-L-g-glutamyl)]; (31)..(31) N-terminal)  15 days
13. 2G4 series 35: disulfide-linked homodimer of monomer SEQ ID NO: 35 (HAEGTFTSDVSCYLEGQAAXEFIAWLVRGRG; not fully specified; disulfide-linked homodimer; Sequence is synthesized; (20)..(20) Xaa is 26Lys[N-e-(N-a-palmitoyl-L-g-glutamyl)]; (31)..(31) N-terminal)  15 days
14. 2G3 series 22: disulfide-linked homodimer of monomer SEQ ID NO: 22 (HAEGTFTSDVSCYLEGQAAXEFIAWLVRGRG; not fully specified; disulfide-linked homodimer; Sequence is synthesized; (20)..(20) Xaa is 26Lys[N-e-(N-a-palmitoyl-L-g-glutamyl)]; (31)..(31) N-terminal)  16 days
15. 2G4 series 30: disulfide-linked homodimer of monomer SEQ ID NO: 30 (HXEGTFTSDVCSYLEGQAAXEFIAWLVRGRG; not fully specified; disulfide-linked homodimer; Sequence is synthesized; (2)..(2) Xaa is bAib; (20)..(20) Xaa is 26Lys[N-e-(N-a-oleoyl-L-g-glutamyl)]; (31)..(31) N-terminal)  16 days
16. 2G4 series 33: disulfide-linked homodimer of monomer SEQ ID NO: 33 (HAEGTFTSDVSCYLEGQAAXEFIAWLVRGRG; not fully specified; disulfide-linked homodimer; Sequence is synthesized; (20)..(20) Xaa is 26Lys[N-e-(N-a-oleoyl-L-g-glutamyl)]; (31)..(31) N-terminal)  16 days
17. 2G3 series 23: disulfide-linked homodimer of monomer SEQ ID NO: 23 (HAEGTFTSDVSCYLEGQAAXEFIAWLVRGRG; disulfide-linked homodimer; Sequence is synthesized; (20)..(20) Xaa is 26Lys[N-e-(N-a-oleoyl-L-g-glutamyl)]; (31)..(31) N-terminal)  17 days
